Where a name gives a salt, the structure may show the parent alone.
Molecular target: T1, angiotensin II receptor (Oryctolagus cuniculus, UniProt P34976)
T1 construct: Main abdominal aortas were removed and placed in Krebs-Henseleit buffer; from tissue; host or cells: main abdominal aorta rings (3 mm) of female New Zealand White rabbits
T1 sequence (P34976 1-359): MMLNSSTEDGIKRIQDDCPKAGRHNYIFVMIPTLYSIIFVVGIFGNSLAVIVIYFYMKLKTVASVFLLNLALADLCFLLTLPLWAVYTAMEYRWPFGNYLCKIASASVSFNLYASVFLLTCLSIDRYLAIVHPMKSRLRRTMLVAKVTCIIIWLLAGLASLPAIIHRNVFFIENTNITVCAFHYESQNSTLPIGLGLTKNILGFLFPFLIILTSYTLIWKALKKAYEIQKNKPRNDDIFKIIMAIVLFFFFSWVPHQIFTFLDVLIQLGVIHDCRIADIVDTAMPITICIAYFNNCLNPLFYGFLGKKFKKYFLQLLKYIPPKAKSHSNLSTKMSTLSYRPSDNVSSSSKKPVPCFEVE
Experiment: Angiotensin II functional assay: antagonism of contraction of rabbit aorta (isolated tissue, Schild analysis)
Set-up: species or system rabbit (female New Zealand White)
Details: antagonist incubated 30 minutes, negative logarithm of antagonist concentration that requires doubling of the angiotensin II concentration
Method: Antagonism of Contraction of Rabbit Aorta The protocol reported by A. T Chiu and […]. Wong, et al. Hypertension, 13, 489-497 (1989)) was followed with a few modifications. Female New Zealand White rabbits weighing 2-5 kg were sedated with carbon dioxide and then sacrificed. Main abdominal aortas were removed and placed in Krebs-Henseleit buffer at room temperature. The tissues were cleaned of extraneous connective tissue, cut into 3 mm rings, and suspended within a 10 mL tissue bath. All dilutions of peptide preparations were made with 0.3% aqueous BSA. The tissues were primed with 55 mM potassium chloride. Tissues were pre-loaded with 1 g of tension. Tension was recorded on a model 7 Grass polygraph using FT03 transducers. At the end of the equilibrium period, a control cumulative concentration-contractile response curve for angiotensin II (A II: 1×10^-10 -10^-8 M) was obtained. The tissue was washed several times until the baseline was reached. Forty five minutes later, test compound (antagonist) was added and the tissue was incubated for 30 minutes. The concentration-response curve for A II was then repeated in the presence of the test compound. One dose of antagonist was tested per tissue only. […] All responses to the control agonist were calculated as a percentage of the maximum response.

Point of comparison: `CCCN(Cc1ccc(-c2ccccc2-c2nnn[nH]2)cc1)c1nc(C)ncc1C(=O)O` [Example 99, 2-Methyl-4-{N-propyl-N-[(2'-[1H-tetrazol-5-yl]biphenyl-4-yl)methyl]amino}pyrimidine-5-carboxylic acid], pA2 9.60. Against it:
- O=C(O)c1cccnc1N(Cc1ccc(-c2ccccc2-c2nn[nH]n2)cc1)CC1CC1 [Example 206, 2-{N-Cyclopropylmethyl-N-[ (2'-[1H-tetrazol-5-yl]biphenyl-4-yl)methyl]amino}pyridine-3-carboxylic acid] — lower, 8.93

Same assay, conditions: antagonist incubated 30 minutes, negative logarithm of antagonist concentration that requires doubling of the angiotensin II concentration, read-out: pA2 (converted)

Point of comparison: `CCCN(Cc1ccc(-c2ccccc2-c2nn[nH]n2)cc1)c1nc(F)ccc1C(=O)O` [Example 160, 2-{N-Propyl-N-[(2'-[1H-tetrazol-5-yl]biphenyl-4-yl)methyl]amino}-6-fluoropyridine-3-carboxylic acid], Kb 0.234 nM. Against it:
- CCCN(Cc1ccc(-c2ccccc2-c2nn[nH]n2)cc1)c1ncncc1C(=O)O [Example 71, 4-{N-Propyl-N-[(2'-[1H-tetrazol-5yl]biphenyl-4-yl)methyl]amino}pyrimidine-5-carboxylic acid hydrochloride] — within 1.5-fold, 0.209 nM
- CCCCN(Cc1ccc(-c2ccccc2-c2nnn[nH]2)cc1)c1nc(F)ccc1C(=O)O [Example 162, 2-{N-Butyl-N-[(2'-[1H-tetrazol-5-yl]biphenyl-4-yl)methyl]amino}-6-fluoropyridine-3-carboxylic acid] — within 1.5-fold, 0.309 nM
- CCCN(Cc1ccc(-c2ccccc2-c2nn[nH]n2)cc1)c1ncccc1C(O)CC(=O)O (stereo not shown) [Example 140, 3-(2-Carboxy-1-hydroxyethyl)-2-{N-propyl-N-[(2'-[1H-tetrazol-5-yl]biphenyl-4-yl)methyl]amino}pyridine] — 6.2-fold higher, 1.45 nM
- CCCN(Cc1ccc(-c2ccccc2-c2nn[nH]n2)cc1)c1nc(C(F)(F)F)ncc1C(=O)O [Example 114, 2-Trifluoromethyl-4-{N-propyl-N-[(2'-[1H-tetrazol-5-yl]biphenyl-4-yl)methyl]amino}pyrimidine-5-carboxylic acid] — 6.9-fold higher, 1.62 nM
- CCCN(Cc1ccc(-c2ccccc2-c2nn[nH]n2)cc1)c1nccc(C)c1C(=O)O [Example 194, 4-Methyl-2-{N-propyl-N-[(2'-[1H-tetrazol-5-yl]biphenyl-4-yl)methyl]amino}pyridine-3-carboxylic acid] — within 1.5-fold, 0.229 nM
- CCCN(Cc1ccc(-c2ccccc2-c2nn[nH]n2)cc1)c1ncc(F)cc1C(=O)O [Example 180, 5-Fluoro-2-{N-propyl-N-[(2'-[1H-tetrazol-5-yl]biphenyl-4-yl)methyl]amino}pyridine-3-carboxylic acid] — 3.9-fold higher, 0.912 nM
- CCCCN(Cc1ccc(-c2ccccc2-c2nnn[nH]2)cc1)c1ncncc1C(=O)O [Example 53, 4-{N-butyl-N-[(2'-[1H-tetrazol-5-yl]biphenyl-4-yl)methyl]amino}pyrimidine-5-carboxylic acid hydrochloride] — 1.9-fold lower, 0.126 nM
- CCCCN(Cc1ccc(-c2ccccc2-c2nn[nH]n2)cc1)c1ncccc1C(=O)O [Example 229, 2-{N-Butyl-N-[(2'-[1H-tetrazol-5-yl]biphenyl-4-yl)methyl]amino}pyridine-3-carboxylic acid] — within 1.5-fold, 0.339 nM
- CCCCN(Cc1ccc(-c2ccccc2-c2nn[nH]n2)cc1)c1nccnc1C(=O)O [Example 157, 3-{N-Butyl-N-[(2'-[1H-tetrazol-5-yl]biphenyl-4-yl)methyl]amino}pyrazine-2-carboxylic acid] — 1.7-fold lower, 0.135 nM
- CCCN(Cc1ccc(-c2ccccc2-c2nn[nH]n2)cc1)c1ncccc1NS(=O)(=O)C(F)(F)F [Example 147, 3-Trifluoromethanesulfonamido-2-{N-propyl-N-[(2'-[1H-tetrazol-5-yl]biphenyl-4-yl)methyl]amino}pyridine] — 2.7-fold higher, 0.631 nM
- CCCCN(Cc1ccc(-c2ccccc2-c2nnn[nH]2)cc1)c1nc(OC)ccc1C(=O)O [Example 163, 2-{N-Butyl-N-[(2' -[1H-tetrazol-5-yl]biphenyl-4-yl)methyl]amino}-6-methoxypyridine-3-carboxylic acid] — within 1.5-fold, 0.309 nM
- CCCCN(Cc1ccc(-c2ccccc2-c2nn[nH]n2)cc1)c1nnc(Cl)cc1C(=O)O [Example 168, 6-{N-Butyl-N-[(2'-[1H-tetrazol-5-yl]biphenyl-4-yl)methyl]amino}-3-chloropyridazine-5-carboxylic acid] — 3.6-fold higher, 0.851 nM
- CCCN(Cc1ccc(-c2ccccc2-c2nn[nH]n2)cc1)c1nnccc1C(=O)O [Example 172, 3-{N-Propyl-N-[(2'-[1H-tetrazol-5-yl]biphenyl-4-yl)methyl]amino}pyridazine-4-carboxylic acid] — within 1.5-fold, 0.214 nM
- CCCN(Cc1ccc(-c2ccccc2-c2nn[nH]n2)cc1)c1ncccc1C(O)C(F)(F)C(=O)OCC (stereo not shown) [Example 135, 3-(2.2-Difluoro-2-ethoxycarbonyl-1-hydroxyethyl)-2-{N-propyl-N-[(2'-[1H-tetrazol-5-yl]biphenyl-4-yl)methyl]amino}pyridine] — 14-fold higher, 3.39 nM
- CCCCN(Cc1ccc(-c2ccccc2-c2nn[nH]n2)cc1)c1nnccc1C(=O)O [Example 169, 3-{N-Butyl-N-[(2'-[1H-tetrazol-5-yl]biphenyl-4-yl)methyl]amino}pyridazine-4-carboxylic acid] — 2.6-fold lower, 0.0891 nM
- CCCCN(Cc1ccc(-c2ccccc2-c2nn[nH]n2)cc1)c1ncc(C(=O)O)cn1 [Example 167, 2-{N-Butyl-N-[(2'-[1H-tetrazol-5-yl]biphenyl-4-yl)methyl]amino}pyrimidine-5-carboxylic acid] — 14-fold higher, 3.31 nM
- O=C(O)c1cccnc1NCc1ccc(-c2ccccc2-c2nn[nH]n2)cc1 [Example 226] — 5.5-fold higher, 1.29 nM
- CCCN(Cc1ccc(-c2ccccc2-c2nn[nH]n2)cc1)c1ncccc1C(=O)NS(=O)(=O)c1ccccc1 [Example 203, 2-{N-Propyl-N-[(2'-[1H-tetrazol-5-yl]biphenyl-4-yl)methyl]amino}pyridine-3-(N-benzenesulfonyl)carboxamide] — 9.6-fold higher, 2.24 nM
- CCCCN(Cc1ccc(-c2ccccc2-c2nnn[nH]2)cc1)c1ncncc1C(=O)OC(C)OC(=O)C1CCN(C)CC1 (stereo not shown) [Example 121, 1-(1-Methylpiperidin-4-ylcarbonyloxy)ethyl 4-{N-butyl-N-[(2'-[1H-tetrazol-5-yl]biphenyl-4-yl)methyl]amino}pyrimidine-5-carboxylate] — within 1.5-fold, 0.257 nM
- CCCCN(Cc1ccc(-c2ccccc2-c2nnn[nH]2)cc1)c1ncncc1C(=O)OCOC(=O)C(C)(C)C [Example 82, Pivaloyloxymethyl 4-{N-butyl-N-[(2'-[1H-tetrazol-5-yl]biphenyl-4-yl)methyl]amino}pyrimidine-5-carboxylate] — within 1.5-fold, 0.331 nM
- CCCN(Cc1ccc(-c2ccccc2-c2nnn[nH]2)cc1)c1ncccc1C(=O)C(F)(F)C(=O)OCC [Example 137, 3-[2,2-Difluoro-2-(ethoxycarbonyl)acetyl]-2-{N-propyl-N-[(2'-[1H-tetrazol-5-yl]biphenyl-4-yl]methyl]amino}pyridine] — 20-fold higher, 4.57 nM

Test system: renal artery ligated rats
Experiment: In vivo blood pressure lowering in renal artery ligated hypertensive rats
Set-up: species or system rat
Details: dose of 30 mg/kg

With `CCCN(Cc1ccc(-c2ccccc2-c2nnn[nH]2)cc1)c1ncccc1C(=O)O` [Example 88, 2-{N-Propyl-N-[(2'-[1H-tetrazol-5-yl]biphenyl-4-yl)methyl]amino}pyridine-3-carboxylic acid] the “reduction in mean arterial blood pressure (MAP)” value was “caused a reduction in mean arterial blood pressure (MAP)”.

Test system: angiotensin II receptor
Experiment: not given
Details: cited from earlier work

For `CNCC(=O)N[C@@H](CCCN=C(N)N)C(=O)N[C@H](C(=O)N[C@@H](Cc1ccc(O)cc1)C(=O)N[C@H](C(=O)N[C@@H](Cc1cnc[nH]1)C(=O)N1CCC[C@H]1C(=O)N[C@@H](C)C(=O)O)C(C)C)C(C)C` [saralasin, [Sar^1,Ala^8] angiotensin II], the “antagonism of the actions of angiotensin II” value is listed as “potent antagonist of the actions of angiotensin II”.

Test system: not given
Experiment: not given
Details: cited from earlier work

In the case of `CNCC(=O)N[C@@H](CCCN=C(N)N)C(=O)N[C@H](C(=O)N[C@@H](Cc1ccc(O)cc1)C(=O)N[C@H](C(=O)N[C@@H](Cc1cnc[nH]1)C(=O)N1CCC[C@H]1C(=O)N[C@@H](C)C(=O)O)C(C)C)C(C)C` [saralasin, [Sar^1,Ala^8] angiotensin II], the oral bioavailability is given as “very poor oral bioavailability”.

Test system: blood pressure
Experiment: not given
Details: after intravenous administration; due to its activity as an angiotensin receptor agonist; cited from earlier work

For `CNCC(=O)N[C@@H](CCCN=C(N)N)C(=O)N[C@H](C(=O)N[C@@H](Cc1ccc(O)cc1)C(=O)N[C@H](C(=O)N[C@@H](Cc1cnc[nH]1)C(=O)N1CCC[C@H]1C(=O)N[C@@H](C)C(=O)O)C(C)C)C(C)C` [saralasin, [Sar^1,Ala^8] angiotensin II], the “effect on blood pressure” value is given as “initial increase in blood pressure after intravenous administration”.

Test system: hypertension and congestive heart failure
Experiment: not given
Details: cited from earlier work

For `C[C@H](CS)C(=O)N1CCC[C@H]1C(=O)O` [captopril], the clinical efficacy is listed as “clinical efficacy in treating hypertension and congestive heart failure”.
In the case of `CCOC(=O)[C@H](CCc1ccccc1)N[C@@H](C)C(=O)N1CCC[C@H]1C(=O)O` [enalapril], the clinical efficacy is given as “clinical efficacy in treating hypertension and congestive heart failure”.
For `COc1ccc(C[C@H](NC(=O)CC(C)(C)N)C(=O)N[C@@H](Cc2cnc[nH]2)C(=O)N[C@@H](CC2CCCCC2)[C@@H](O)[C@@H](O)CC(C)C)cc1` [enalkiren], the clinical efficacy is given as “clinical efficacy in treating hypertension and congestive heart failure”.

— US5250548A, “Angiotensin II receptor antagonists” (Abbott Laboratories, priority 1992, dated 1993)
